# From US5064815A, “Primycin-containing colloidal basic gel” (Chinoin Gyogyszer es Vegyeszeti Termekek Gyara RT., priority 1985, dated 1991)
# Structures can show the parent of a compound that is named as a salt. Where two headings read alike, the source gives them in different places.
# Key:
# [1] = Solubility in N-methyl pyrrolidone; type: physicochemical; settings: for Behaviour of heated N-methyl pyrrolidone solution on cooling: significant heating needed
# Source text: We have examined the quantity in ml of N-methyl-pyrrolidone which is necessary to dissolve 0.1 gram of each respective compound.
# [2] = Spontaneous gel-formation with solvents / with N-methyl-pyrrolidone / mixed gels; type: physicochemical
# Source text: We have studies spontaneous gel-formation with various solvents on the one hand and various pharmaceutical active ingredients on the other. The following solvents are used: methanol, ethanol, isopropanol, n-butanol, isobutanol, dichloromethane, chloroform, carbon tetrachloride, ethyl acetate, acetonitrile, n-hexane, petrol, benzene, toluene, petrolether, ether, dimethyl formamide, dimethyl sulfoxide, isopropyl myristate.
# Furtheron gel-formation has been studied between N-methyl-pyrrolidone and further pharmaceutical active ingredients. The following active ingredients are used: gentamycin, doxycyclin, oxolinic acid, nalidixic acid, drotaverin, theophyllin, acetyl salicylic acid, papaverin, indomethacin.
# We have studied furtheron the possibility of the preparation of mixed gels comprising two active ingredients, including antibiotics other then primycin (e.g. gentamicin, doxycyclin, oxytetracyclin, chloramphenicol etc.).
# acne = settings: human, in vivo
# gram-positive bacteria = settings: cited from earlier work
Compound,Required amount of N-methyl pyrrolidone necessary to dissolve 0.1 g ([1]; (A) Room Temperature),Required amount of N-methyl pyrrolidone necessary to dissolve 0.1 g ([1]; (B) Under Heating),Gel formation with N-methyl-pyrrolidone [2],further results
CCCSc1ccc2nc(NC(=O)OC)[nH]c2c1 [Albendazole],1.5 milliliters,1.0 milliliters,,
CC(=O)OCC(=O)[C@@]1(O)CC[C@H]2[C@@H]3CCC4=CC(=O)CC[C@]4(C)[C@H]3[C@@H](O)C[C@@]21C [Hydrocortisone-Acetate],1.0 milliliters,0.2 milliliters,,
C[C@@H]1[C@H](O)[C@@H](C)/C=C/C=C/CC/C=C/C=C/C=C/C=C/C(O[C@H]2O[C@H](C)[C@@H](O)[C@H](N)[C@@H]2O)CC2O[C@](O)(CC(O)C(O)CCC(O)CC(O)CC(O)CC(=O)O[C@H]1C)CC(O)C2C(=O)O (stereo partly drawn) [Nystatin],5.0 milliliters,2.0 milliliters,,
[H]/N=C(/N)N[C@H]1[C@H](O)[C@@H](O)[C@H](O[C@@H]2O[C@@H](C)[C@](O)(C=O)[C@H]2O[C@@H]2O[C@@H](CO)[C@H](O)[C@@H](O)[C@@H]2NC)[C@@H](N/C(N)=N\[H])[C@@H]1O [Streptomycin Sulfate],20.0 milliliters,does not dissolve,,
CC(=O)Oc1ccccc1C(=O)O [acetyl salicylic acid],,,None of the above active ingredients form a stable transparent gel,
C[C@H]1c2cccc(O)c2C(O)=C2C(=O)[C@]3(O)C(O)=C(C(N)=O)C(=O)[C@@H](N(C)C)[C@@H]3[C@@H](O)[C@@H]21 [doxycyclin],10.0 milliliters,2.0 milliliters,None of the above active ingredients form a stable transparent gel,
CCOc1ccc(/C=C2\NCCc3cc(OCC)c(OCC)cc32)cc1OCC [drotaverin],,,None of the above active ingredients form a stable transparent gel,
COc1ccc2c(c1)c(CC(=O)O)c(C)n2C(=O)c1ccc(Cl)cc1 [indomethacin],,,None of the above active ingredients form a stable transparent gel,
CCn1cc(C(=O)O)c(=O)c2ccc(C)nc21 [nalidixic acid],does not dissolve,6.0 milliliters,None of the above active ingredients form a stable transparent gel,Behaviour of heated N-methyl pyrrolidone solution on cooling [1]: precipitates after cooling
CCn1cc(C(=O)O)c(=O)c2cc3c(cc21)OCO3 [oxolinic acid],does not dissolve,8.0 milliliters,None of the above active ingredients form a stable transparent gel,Behaviour of heated N-methyl pyrrolidone solution on cooling [1]: precipitates after
COc1ccc(Cc2nccc3cc(OC)c(OC)cc23)cc1OC [papaverin],,,None of the above active ingredients form a stable transparent gel,
Cn1c(=O)c2[nH]cnc2n(C)c1=O [theophyllin],,,None of the above active ingredients form a stable transparent gel,
"[5-(18-(α-D-arabinofuranosyloxy)-2-butyl-3,7,11,15,19,21,23,25,27-nonahydroxy-4,16,32,34-tetramethyl-1-oxo-oxacyclohexatriaconta-16,32-dien-35- yl)-4-hydroxyhexyl]-guanidinium-sulfate [Primycin]",does not dissolve,0.5 milliliters,spontaneous gel-formation resulting in the formation of a stable transparent gel,"Pure gel formation with other solvents ([2]; ethanol amine, diethanol amine, triethanol amine, dimethyl formamide, dimethyl sulfoxide, 5-30%): pure gel is formed neither in the cold nor in the warm; Stable gel formation with solvents ([2]; methanol, ethanol, isopropanol, n-butanol, isobutanol, dichloromethane, chloroform, carbon tetrachloride, ethyl acetate, acetonitrile, n-hexane, petrol, benzene, toluene, petrolether, ether, dimethyl formamide, dimethyl sulfoxide, isopropyl myristate): None of the above solvents forms a stable gel with primycin; Solubility in N-methyl-pyrrolidone (in words) [1]: not easily dissolved; Temperature-dependance of the solubility [1]: more than two orders of magnitude; Precipitation from 1% solutions (1% solutions prepared under heating, on cooling): primycin precipitated upon cooling; Solubility, dissolved material (methanol): 2 µg/mL; Solubility, dissolved material (propylene glycol): 5 µg/mL; Solubility, dissolved material (water): 0.05 µg/mL; Absorption into the blood stream (acne): not to be absorbed by the blood stream; Skin irritation on topical application (acne): severe irritation to the skin; Toxicity upon entry into the bloodstream (acne): significantly toxic; Effect in combination with other antibiotics (gram-positive bacteria; Hungarian patent No. 158,241): synergistic effect; Antibacterial spectrum (gram-positive bacteria; prior art): particularly effective against gram-positive bacteria but active against polyresistant human pathogenic strains as well; Resistance development (gram-positive bacteria; prior art): No resistance has developed"
gentamycin,,,None of the above active ingredients form a stable transparent gel,
